Source: patent US10624917B2, “Compositions and methods useful for treating or preventing liver diseases or disorders, and promoting weight loss” (YALE UNIVERSITY, priority 2014, dated 2020)

Assays:
[1] = test system: wild type and Casp-1−/− mice injected with TAA; assay: TAA induced liver fibrosis with co-injection of adenosine agonist; format: in vivo, mouse; conditions: wildtype mice
Procedure: FIGS. 16A-16B illustrate increased liver fibrosis in wild-type control but not caspase-1-deficient mice in response to adenosine agonist. FIG. 16A: Wild type and Casp-1−/− mice were injected intraperitoneally with TAA with co-injection of CGS21680 (2.5 mg kg^−1 body weight) or vehicle. The liver tissues from each group were collected […] after first injection, and tissue collagen visualized by Sirius red staining, and the representative images are shown. Scale bar corresponds to 500 μm. FIG. 16B: Total liver RNA was extracted and Timp1 mRNA levels quantified. Data are expressed as the mean±SD from three independent experiments. * p<0.05 determined by Student's t-test.
To further test the effect of increased adenosine signaling on fibrosis wild-type and caspase-1 deficient mice were injected with TAA with and without co-injection of the adenosine agonist CGS21680. After one week, liver tissues were stained for collagen with Sirus Red. CGS21680 increased TAA induced liver fibrosis and Timp1 expression in wildtype but not caspase-1 deficient mice (FIGS. 16A-16B).

[2] = test system: Il1b and other genes in PECs; assay: Quantitative real-time RT-PCR gene expression in PECs; format: cell-based, mouse; conditions: peritoneal macrophages, FIG. 2E
[3] = test system: wild type C57BL/6 mice treated with LPS; assay: LPS/D-galactosamine liver injury with adenosine agonist; format: in vivo, mouse
Procedure: FIGS. 14A-14F illustrate increase in serum ALT and changes in liver gene expression in mice treated with LPS in the presence or absence of adenosine agonist. Wild type C57BL/6 mice were injected intraperitoneally with LPS (1 μg/mouse). 16 hours later mice received NECA (2.5 mg kg^−1 body weight) and D-galactosamine (500 mg kg^−1) by IP for 2 hours following liver tissue and serum collection. Serum ALT was determined (FIG. 14A), and the gene expression of Il1β (FIG. 14B), Il6 (FIG. 14C), Hif1α (FIG. 14D), Nlrp3 (FIG. 14E), and tnfα (FIG. 14F) was quantified by real-time PCR using each specific gene primer set as listed. Data are expressed as the mean±SD from 6 mice in each treatment group. *p<0.05 determined by Student's t-test.
The results recited herein show a requirement for adenosine signaling via the A2A receptor for maximal production of IL-1β by macrophages in vitro. With tissue inflammation and injury extracellular adenosine levels are known to increase by a variety of means from the basal levels below 1 μM to levels up to […]. It was tested whether A2A receptor driven inflammasome activity was relevant in vivo; two models of liver injury was used: one acute LPS driven model where liver injury was assessed in 6 hours after LPS, and a second model of sterile injury by a toxic metabolic insult to the liver by thioacetamide (TAA) in which injury was examined at days 1, 2 and 7. A2AR-cKO mice that specifically delete Adora2a gene in macrophages were used. Liver immune populations were intact in these mice (FIG. 13). […] To test the effect of increasing adenosine signaling in vivo, wild-type mice were treated with LPS in the presence or absence of the adenosine agonist NECA.

SMILES | TAA induced liver fibrosis [1] | Timp1 expression [1] | induction of Il1b mRNA expression [2] | serum ALT [3] | whole liver transcript of Hif1a [3] | whole liver transcript of Il1b [3] | whole liver transcript of Il6 [3] | whole liver transcript of Nlrp3 [3] | whole liver transcript of tnfa [3]
CCNC(=O)[C@H]1O[C@@H](n2cnc3c(N)nc(NCCc4ccc(CCC(=O)O)cc4)nc32)[C@H](O)[C@@H]1O [CGS21680] | increased | increased | increases |  |  |  |  |  | 
CCNC(=O)[C@H]1O[C@@H](n2cnc3c(N)ncnc32)[C@H](O)[C@@H]1O [NECA, 5′-(N-ethylcarboxamido) adenosine] |  |  |  | significant elevation | significant elevation | significant elevation | significant elevation | significant elevation | reduction
